Measurements published in patent US9994547B2, “Heteroarylamide inhibitors of TBK1” (Takeda Pharmaceutical Company Limited, priority 2014, dated 2018).

Molecular target: Full length human TBK1 (Homo sapiens (Human), UniProt Q9UHD2)
Assay: Inhibition of TBK1 Enzyme (Example A)
Type: biochemical
Settings: -log(IC50), IC50 molar; 3 nM TBK1, 25 μM ATP, 60 min RT
Description: Full length human TBK1 with an N-terminal His-tag was cloned into the pFastBacl vector and was transfected into Sf9 cells. 72 hours later the virus was harvested and amplified through two additional rounds of infections. Then 400 mL of the resulting virus stock was used to infect 10 L of Sf9 cells at a density of 2×10^6 cells/mL. Cell pellets were harvested 48 hours post infection and were lysed by freeze-thaw, homogenization and sonication in binding buffer (25 mM Tris pH7.6, 1 M NaCl, 10 mM imidazole, 0.5 mM TCEP) plus 0.1% Triton X-100 and complete protease inhibitor cocktail. The lysate was spun and the supernatant was purified with a HisTrap FF crude and a Superdex 200 pg column.
TBK1 inhibition is determined using a 384 well plate format in buffer containing 20 mM Hepes, pH 7.4, 10 mM MgCl2, 1 mM EDTA, 0.01% Brij-L23, 1 mM DTT. Each test compound is prepared in DMSO using 2.5-fold serial dilutions for 11 data points, which are added to the buffer so that each dilution contains 1% DMSO. To each well is added 2 μL of 1 μM 5FAM-DRHDSGLDSMKDE-NH2 (in buffer), 2 μL of diluted test compound (1% DMSO in buffer), and 5 μL of 3 nM TBK1 and 25 μM ATP (in buffer). The reaction mixture is incubated at RT for 60 min, and quenched by adding 20 mM Hepes, pH 7.4, 10 mM MgCl2, 1 mM EDTA, 0.01% Brij-L23, 1 mM DTT+25 mM EDTA. To quantify the fluorescent-labeled substrate and product following reaction, the test plate is loaded on a Caliper LC-3000, which measures percent of conversion by microfluidic-based separation. Corresponding IC50 values are calculated by non-linear curve fitting of the compound concentrations and percent of inhibition to the standard IC50 equation and reported as pIC50, i.e., −log(IC50), where IC50 is the molar concentration.

Sequence of Full length human TBK1 (Q9UHD2 whole entry): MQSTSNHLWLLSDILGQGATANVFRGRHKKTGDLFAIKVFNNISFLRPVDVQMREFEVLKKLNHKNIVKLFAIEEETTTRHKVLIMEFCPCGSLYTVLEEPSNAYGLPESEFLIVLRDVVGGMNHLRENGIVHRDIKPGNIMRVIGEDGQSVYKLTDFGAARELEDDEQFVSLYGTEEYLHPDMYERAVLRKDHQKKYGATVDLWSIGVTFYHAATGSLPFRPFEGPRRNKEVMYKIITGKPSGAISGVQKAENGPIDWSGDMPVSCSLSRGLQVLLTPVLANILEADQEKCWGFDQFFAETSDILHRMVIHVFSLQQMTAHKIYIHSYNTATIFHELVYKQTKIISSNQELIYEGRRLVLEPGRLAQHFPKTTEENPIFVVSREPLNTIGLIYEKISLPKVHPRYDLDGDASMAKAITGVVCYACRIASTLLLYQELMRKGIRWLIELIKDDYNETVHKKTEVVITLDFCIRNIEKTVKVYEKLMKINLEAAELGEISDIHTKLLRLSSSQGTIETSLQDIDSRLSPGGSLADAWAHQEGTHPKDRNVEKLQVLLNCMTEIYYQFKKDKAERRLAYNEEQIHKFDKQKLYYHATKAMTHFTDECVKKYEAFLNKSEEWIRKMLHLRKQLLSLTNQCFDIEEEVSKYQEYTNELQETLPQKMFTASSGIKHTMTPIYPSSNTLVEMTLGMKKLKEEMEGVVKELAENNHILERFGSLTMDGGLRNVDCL

Point of comparison: CN(C)C(=O)C(CC#N)Nc1cc(-c2cnc(NC(=O)C3CC3)cn2)cnc1C#N (stereo not drawn) [Example 44, N-(5-(6-cyano-5-((3-cyano-1-(dimethylamino)-1-oxopropan-2-yl)amino)pyridin-3-yl)pyrazin-2-yl)cyclopropanecarboxamide], “TBK1 Inhibition (pIC50)” value 6.2. Against it:
- CC(Nc1cc(-c2cnc(NC(=O)C3CC3)cn2)cnc1C#N)C(=O)N(C)CCF (stereo not drawn) [Example 47, N-(5-(6-cyano-5-((1-((2-fluoroethyl)(methyl)amino)-1-oxopropan-2-yl)amino)pyridin-3-yl)pyrazin-2-yl)cyclopropanecarboxamide] — higher, 7.7
- CN(C)C(=O)[C@H](CC(F)F)Nc1cc(-c2cnc(NC(=O)C3CC3)cn2)cnc1C#N [Example 80, (S)-N-(5-(6-cyano-5-((1-(dimethylamino)-4,4-difluoro-1-oxobutan-2-yl)amino)pyridin-3-yl)pyrazin-2-yl)cyclopropanecarboxamide] — higher, 7.4
- COCC[C@H](Nc1cc(-c2cnc(NC(=O)C3CC3)cn2)ccc1C#N)C(=O)N(C)C [Example 7, (S)-N-(5-(4-cyano-3-((1-(dimethylamino)-4-methoxy-1-oxobutan-2-yl)amino)phenyl)pyrazin-2-yl)cyclopropanecarboxamide] — higher, 8.2
- CN(C)C(=O)C(CC(F)(F)F)Nc1cc(-c2cnc(NC(=O)C3CC3)cn2)cnc1C#N (stereo not drawn) [Example 138, N-(5-(6-cyano-5-((1-(dimethylamino)-4,4,4-trifluoro-1-oxobutan-2-yl)amino)pyridin-3-yl)pyrazin-2-yl)cyclopropanecarboxamide] — the same, 6.2
- N#Cc1ncc(-c2cnc(NC(=O)C3CC3)cn2)cc1NCC(=O)N1CCOC[C@@H]1CF [Example 75, (R)-N-(5-(6-cyano-5-((2-(3-(fluoromethyl)morpholino)-2-oxoethyl)amino)pyridin-3-yl)pyrazin-2-yl)cyclopropanecarboxamide] — higher, 6.9
- COC1CN(C(=O)[C@H](C)Nc2cc(-c3cnc(NC(=O)C4CC4)cn3)ccc2C#N)C1 [Example 16, (S)-N-(5-(4-cyano-3-((1-(3-methoxyazetidin-1-yl)-1-oxopropan-2-yl)amino)phenyl)pyrazin-2-yl)cyclopropanecarboxamide] — within 0.2 log units, 6.3
- CN(C)C(=O)C(CCO)Nc1cc(-c2cnc(NC(=O)C3CC3)cn2)ccc1C#N (stereo not drawn) [Example 28, N-(5-(4-cyano-3-((1-(dimethylamino)-4-hydroxy-1-oxobutan-2-yl)amino)phenyl)pyrazin-2-yl)cyclopropanecarboxamide] — higher, 6.9
- CCC(Nc1cc(-c2cnc(NC(=O)C3CC3)cn2)cnc1C#N)C(=O)N(C)CCO (stereo not drawn) [Example 35, N-(5-(6-cyano-5-((1-((2-hydroxyethyl)(methyl)amino)-1-oxobutan-2-yl)amino)pyridin-3-yl)pyrazin-2-yl)cyclopropanecarboxamide] — higher, 6.9
- N#Cc1ncc(-c2cnc(NC(=O)C3CC3)cn2)cc1NCC(=O)N1CCS(=O)(=O)C1 [Example 140, N-(5-(6-cyano-5-((2-(1,1-dioxidothiazolidin-3-yl)-2-oxoethyl)amino)pyridin-3-yl)pyrazin-2-yl)cyclopropanecarboxamide] — higher, 7.0
- CC1CC1C(=O)Nc1cnc(-c2cnc(C#N)c(NCC(N)=O)c2)cn1 (stereo not drawn) [Example 144, N-(5-(5-((2-amino-2-oxoethyl)amino)-6-cyanopyridin-3-yl)pyrazin-2-yl)-2-methylcyclopropanecarboxamide] — lower, 5.6
- CN1CCN(C(=O)CNc2cc(-c3cnc(NC(=O)C4CC4)cn3)cnc2C#N)CC1 [Example 97, N-(5-(6-cyano-5-((2-(4-methylpiperazin-1-yl)-2-oxoethyl)amino)pyridin-3-yl)pyrazin-2-yl)cyclopropanecarboxamide] — lower, 5.5
- CCC(C#N)N(C)C(=O)CNc1cc(-c2cnc(NC(=O)C3CC3)cn2)cnc1C#N (stereo not drawn) [Example 92, N-(5-(6-cyano-5-((2-((1-cyanopropyl)(methyl)amino)-2-oxoethyl)amino)pyridin-3-yl)pyrazin-2-yl)cyclopropanecarboxamide] — the same, 6.2
- C[C@H](Nc1cc(-c2cnc(NC(=O)C3CC3CO)cn2)cnc1C#N)C(=O)N(C)CC(F)F (stereo partly drawn) [Example 146, N-(5-(6-cyano-5-(((S)-1-((2,2-difluoroethyl)(methyl)amino)-1-oxopropan-2-yl)amino)pyridin-3-yl)pyrazin-2-yl)-2-(hydroxymethyl)cyclopropanecarboxamide] — higher, 8.1
- CN1CC(N(C)C(=O)CNc2cc(-c3cnc(NC(=O)C4CC4)cn3)cnc2C#N)C1 [Example 105, N-(5-(6-cyano-5-((2-(methyl(1-methylazetidin-3-yl)amino)-2-oxoethyl)amino)pyridin-3-yl)pyrazin-2-yl)cyclopropanecarboxamide] — lower, 5.6
- C[C@H]1COCCN1C(=O)CNc1cc(-c2cnc(NC(=O)C3CC3)cn2)cnc1C#N [Example 84, (S)-N-(5-(6-cyano-5-((2-(3-methylmorpholino)-2-oxoethyl)amino)pyridin-3-yl)pyrazin-2-yl)cyclopropanecarboxamide] — higher, 7.2
- COCCN(C)C(=O)[C@H](C)Nc1cc(-c2cnc(NC(=O)C3CC3)cn2)ccc1C#N [Example 17, (S)-N-(5-(4-cyano-3-((1-((2-methoxyethyl)(methyl)amino)-1-oxopropan-2-yl)amino)phenyl)pyrazin-2-yl)cyclopropanecarboxamide] — higher, 7.1
- N#Cc1ncc(-c2cnc(NC(=O)C3CC3)cn2)cc1NCC(=O)N1CCC(C#N)C1 (stereo not drawn) [Example 102, N-(5-(6-cyano-5-((2-(3-cyanopyrrolidin-1-yl)-2-oxoethyl)amino)pyridin-3-yl)pyrazin-2-yl)cyclopropanecarboxamide] — higher, 6.6
- CC(Nc1cc(-c2cnc(NC(=O)C3CC3)cn2)ccc1C#N)C(=O)N(C)C (stereo not drawn) [Example 3, N-(5-(4-cyano-3-((1-(dimethylamino)-1-oxopropan-2-yl)amino)phenyl)pyrazin-2-yl)cyclopropanecarboxamide] — higher, 7.9
- CC(C#N)NC(=O)[C@H](C)Nc1cc(-c2cnc(NC(=O)C3CC3)cn2)cnc1C#N (stereo partly drawn) [Example 62, N-(5-(6-cyano-5-(((2S)-1-((1-cyanoethyl)amino)-1-oxopropan-2-yl)amino)pyridin-3-yl)pyrazin-2-yl)cyclopropanecarboxamide] — higher, 6.6
- C[C@H](Nc1cc(-c2cnc(NC(=O)C3CC3)cn2)cnc1C#N)C(=O)N(C)C [Example 129, (S)-N-(5-(6-cyano-5-((1-(dimethylamino)-1-oxopropan-2-yl)amino)pyridin-3-yl)pyrazin-2-yl)cyclopropanecarboxamide] — higher, 7.6
- C[C@H](Nc1cc(-c2cnc(NC(=O)C3CC3)cn2)cnc1C#N)C(=O)N(C)CC(F)F [Example 53, (S)-N-(5-(6-cyano-5-((1-((2,2-difluoroethyl)(methyl)amino)-1-oxopropan-2-yl)amino)pyridin-3-yl)pyrazin-2-yl)cyclopropanecarboxamide] — higher, 8.6
- CN(C)C(=O)C(CC(F)F)Nc1cc(-c2cnc(NC(=O)C3CC3)cn2)cnc1C#N (stereo not drawn) [Example 68, N-(5-(6-cyano-5-((1-(dimethylamino)-4,4-difluoro-1-oxobutan-2-yl)amino)pyridin-3-yl)pyrazin-2-yl)cyclopropanecarboxamide] — higher, 7.4
- CC1CC1C(=O)Nc1cnc(-c2ccc(C#N)c(NCC(=O)N(C)C)c2)cn1 (stereo not drawn) [Example 4, N-(5-(4-cyano-3-((2-(dimethylamino)-2-oxoethyl)amino)phenyl)pyrazin-2-yl)-2-methylcyclopropanecarboxamide] — higher, 7.1
- COCC[C@H](Nc1cc(-c2cnc(NC(=O)C3CC3)cn2)cnc1C#N)C(=O)N(C)C [Example 131, (S)-N-(5-(6-cyano-5-((1-(dimethylamino)-4-methoxy-1-oxobutan-2-yl)amino)pyridin-3-yl)pyrazin-2-yl)cyclopropanecarboxamide] — higher, 7.1
- C[C@H](Nc1cc(-c2cnc(NC(=O)C3CC3)cn2)cnc1C#N)C(=O)N1CCOC[C@@H]1C [Example 91, N-(5-(6-cyano-5-(((S)-1-((S)-3-methylmorpholino)-1-oxopropan-2-yl)amino)pyridin-3-yl)pyrazin-2-yl)cyclopropanecarboxamide] — higher, 7.7

Same assay, conditions: -log(IC50), IC50 molar; 3 nM TBK1, 25 μM ATP, 60 min RT; read-out: TBK1 Inhibition (pIC50) (converted)

For N#Cc1ncc(-c2cnc(NC(=O)C3CC3)cn2)cc1NCC(=O)N1CCO[C@H]1C(F)(F)F [Example 96, (S)-N-(5-(6-cyano-5-((2-oxo-2-(2-(trifluoromethyl)oxazolidin-3-yl)ethyl)amino)pyridin-3-yl)pyrazin-2-yl)cyclopropanecarboxamide], the IC50 was 15.8 nM.
